The target in the experiment is Human cGAS amino acids 155-522 (Homo sapiens (Human), UniProt Q8N884). As to the kind of experiment: cGAS biochemical activity assay (ATP remaining, Kinase-Glo Max luminescence). The note with it: human cGAS 155-522, ATP remaining (Kinase-Glo Max); read-out: cGAS IC50. (Kinase-Glo measures the ATP left after a reaction by luminescence.)
Sequence of Human cGAS amino acids 155-522 (Q8N884 157-522): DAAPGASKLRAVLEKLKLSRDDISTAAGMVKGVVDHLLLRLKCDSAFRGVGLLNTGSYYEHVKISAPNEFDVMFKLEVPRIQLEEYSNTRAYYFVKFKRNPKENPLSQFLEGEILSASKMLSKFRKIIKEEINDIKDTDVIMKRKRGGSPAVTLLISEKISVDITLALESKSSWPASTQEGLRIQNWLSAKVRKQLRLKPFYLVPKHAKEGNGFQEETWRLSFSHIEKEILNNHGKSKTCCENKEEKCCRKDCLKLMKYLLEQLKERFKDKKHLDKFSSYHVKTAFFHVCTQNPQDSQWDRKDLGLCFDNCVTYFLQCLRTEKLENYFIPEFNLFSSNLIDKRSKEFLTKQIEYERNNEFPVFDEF
In the case of `COc1cccc2oc(-c3c(C)[nH]c4c(-c5ccccc5C#N)c(C(F)(F)F)nn4c3=O)nc12` [Compound C1148, 2-(6-(4-methoxybenzo[d]oxazol-2-yl)-5-methyl-7-oxo-2-(trifluoromethyl)-4,7-dihydropyrazolo[1,5-a]pyrimidin-3-yl)benzonitrile], the half-inhibitory concentration (IC50) lay in the range of 20 to 250 µM.

Consider `COc1nc(NC(C)=O)nc2oc(-c3c(C)[nH]c4c(-c5ccccc5)c(C(F)(F)F)nn4c3=O)nc12` [Compound C1150, N-(7-methoxy-2-(5-methyl-7-oxo-3-phenyl-2-(trifluoromethyl)-4,7-dihydropyrazolo[1,5-a]pyrimidin-6-yl)oxazolo[5,4-d]pyrimidin-5-yl)acetamide], for which the IC50 is 20 to 250 µM.

Regarding `COCc1nc(-c2c(C)[nH]c3c(-c4ccccc4)c(C(F)(F)F)nn3c2=O)oc1C1CCCCC1` [Compound C1158, 6-(5-cyclohexyl-4-(methoxymethyl)oxazol-2-yl)-5-methyl-3-phenyl-2-(trifluoromethyl)pyrazolo[1,5-a]pyrimidin-7(4H)-one], the IC50 is greater than 250 µM.

For the compound `COc1cccc2oc(-c3c(C)[nH]c4c(-c5ccc(C#N)cc5)c(C(F)(F)F)nn4c3=O)nc12` [Compound C1164, 4-(6-(4-methoxybenzo[d]oxazol-2-yl)-5-methyl-7-oxo-2-(trifluoromethyl)-4,7-dihydropyrazolo[1,5-a]pyrimidin-3-yl)benzonitrile], the IC50 is greater than 250 µM.

For the compound `Cc1[nH]c2c(-c3ccccc3)c(C(F)(F)F)nn2c(=O)c1C1OC(=O)c2ccccc21` (centres unmarked) [Compound C1168, 5-methyl-6-(3-oxo-1,3-dihydroisobenzofuran-1-yl)-3-phenyl-2-(trifluoromethyl)pyrazolo[1,5-a]pyrimidin-7(4H)-one], the IC50 lay in the range of 20 to 250 µM.

For `COc1cccc2oc(-c3c(C)[nH]c4c(-c5ccc(C)cc5)c(C(F)(F)F)nn4c3=O)nc12` [Compound C1171], the IC50 was in the range of 20 to 250 µM.

Regarding `COc1cccc2oc(-c3c(C)[nH]c4c(-c5cccc(C)c5)c(C(F)(F)F)nn4c3=O)nc12` [Compound C1172, 6-(4-methoxybenzo[d]oxazol-2-yl)-5-methyl-3-(m-tolyl)-2-(trifluoromethyl)pyrazolo[1,5-a]pyrimidin-7(4H)-one], the IC50 was less than 20 µM.

With `COCCN(C)C(=O)c1[nH]c2c(-c3ccccc3)c(C(F)(F)F)nn2c(=O)c1-c1nc2c(OC)cccc2o1` [Compound C1179, 6-(4-methoxybenzo[d]oxazol-2-yl)-N-(2-methoxyethyl)-N-methyl-7-oxo-3-phenyl-2-(trifluoromethyl)-4,7-dihydropyrazolo[1,5-a]pyrimidine-5-carboxamide], the IC50 fell in the range of 20 to 250 µM.

Consider `COc1cccc2oc(-c3c(C(=O)N4CCCCC4)[nH]c4c(-c5ccccc5)c(C(F)(F)F)nn4c3=O)nc12` [Compound C1186, 6-(4-methoxybenzo[d]oxazol-2-yl)-3-phenyl-5-(piperidine-1-carbonyl)-2-(trifluoromethyl)pyrazolo[1,5-a]pyrimidin-7(4H)-one], for which the IC50 lay within 20 to 250 µM.

Turning to `COc1cccc2c1nc(-c1c(C)[nH]c3c(-c4ccccc4)c(C(F)(F)F)nn3c1=O)n2CC1CC1` [Compound C1189, 6-(1-(cyclopropylmethyl)-4-methoxy-1H-benzo[d]imidazol-2-yl)-5-methyl-3-phenyl-2-(trifluoromethyl)pyrazolo[1,5-a]pyrimidin-7(4H)-one], the IC50 is 20 to 250 µM.

Take `COc1ccc(CN)c2oc(-c3c(C)[nH]c4c(-c5ccccc5)c(C(F)(F)F)nn4c3=O)nc12` [Compound C1191, 6-(7-(aminomethyl)-4-methoxybenzo[d]oxazol-2-yl)-5-methyl-3-phenyl-2-(trifluoromethyl)pyrazolo[1,5-a]pyrimidin-7(4H)-one]: the IC50 was greater than 250 µM.

For the compound `Cc1[nH]c2c(-c3ccccc3)c(C(F)(F)F)nn2c(=O)c1C1=N[C@H](C(=O)O)CO1` [Compound C1192, (S)-2-(5-methyl-7-oxo-3-phenyl-2-(trifluoromethyl)-4,7-dihydropyrazolo[1,5-a]pyrimidin-6-yl)-4,5-dihydrooxazole-4-carboxylic acid], the IC50 was less than 20 µM.

Take `COc1cccc2oc(-c3c(C(=O)N[C@@H](C)CO)[nH]c4c(-c5ccccc5)c(C(F)(F)F)nn4c3=O)nc12` [Compound C1196, (S)-N-(1-hydroxypropan-2-yl)-6-(4-methoxybenzo[d]oxazol-2-yl)-7-oxo-3-phenyl-2-(trifluoromethyl)-4,7-dihydropyrazolo[1,5-a]pyrimidine-5-carboxamide]: the IC50 is less than 20 µM.

On to `COc1cccc2oc(-c3c(C(=O)N(C)CC(=O)O)[nH]c4c(-c5ccccc5)c(C(F)(F)F)nn4c3=O)nc12` [Compound C1197, N-(6-(4-methoxybenzo[d]oxazol-2-yl)-7-oxo-3-phenyl-2-(trifluoromethyl)-4,7-dihydropyrazolo[1,5-a]pyrimidine-5-carbonyl)-N-methylglycine], for which the IC50 is 20 to 250 µM.

In the case of `COc1cccc2oc(-c3c(COCC(N)=O)[nH]c4c(-c5ccccc5)c(C(F)(F)F)nn4c3=O)nc12` [Compound C1198, 2-((6-(4-methoxybenzo[d]oxazol-2-yl)-7-oxo-3-phenyl-2-(trifluoromethyl)-4,7-dihydropyrazolo[1,5-a]pyrimidin-5-yl)methoxy)acetamide], the half-maximal inhibitory concentration (IC50) was 20 to 250 µM.

For the compound `CNC(=O)COCc1[nH]c2c(-c3ccccc3)c(C(F)(F)F)nn2c(=O)c1-c1nc2c(OC)cccc2o1` [Compound C1199, 2-((6-(4-methoxybenzo[d]oxazol-2-yl)-7-oxo-3-phenyl-2-(trifluoromethyl)-4,7-dihydropyrazolo[1,5-a]pyrimidin-5-yl)methoxy)-N-methylacetamide], the IC50 lay in the range of 20 to 250 µM.

On to `COCCn1c(-c2c(C)[nH]c3c(-c4ccccc4)c(C(F)(F)F)nn3c2=O)nc2c(OC)cccc21` [Compound C1200, 6-(4-methoxy-1-(2-methoxyethyl)-1H-benzo[d]imidazol-2-yl)-5-methyl-3-phenyl-2-(trifluoromethyl)pyrazolo[1,5-a]pyrimidin-7(4H)-one], for which the IC50 fell in the range of 20 to 250 µM.

Consider `COc1cccc2c1nc(-c1c(C)[nH]c3c(-c4ccccc4)c(C(F)(F)F)nn3c1=O)n2CCO` [Compound C1201, 6-(1-(2-hydroxyethyl)-4-methoxy-1H-benzo[d]imidazol-2-yl)-5-methyl-3-phenyl-2-(trifluoromethyl)pyrazolo[1,5-a]pyrimidin-7(4H)-one], for which the IC50 lay within 20 to 250 µM.

`COc1cccc2oc(-c3c(C(=O)N4CCC[C@@H]4CO)[nH]c4c(-c5ccccc5)c(C(F)(F)F)nn4c3=O)nc12` [Compound C1207, (R)-5-(2-(hydroxymethyl)pyrrolidine-1-carbonyl)-6-(4-methoxybenzo[d]oxazol-2-yl)-3-phenyl-2-(trifluoromethyl)pyrazolo[1,5-a]pyrimidin-7(4H)-one]: the IC50 lay within 20 to 250 µM.

`COc1cccc2oc(-c3c(C(=O)N[C@H](CO)C(C)C)[nH]c4c(-c5ccccc5)c(C(F)(F)F)nn4c3=O)nc12` [Compound C1208, (S)-N-(1-hydroxy-3-methylbutan-2-yl)-6-(4-methoxybenzo[d]oxazol-2-yl)-7-oxo-3-phenyl-2-(trifluoromethyl)-4,7-dihydropyrazolo[1,5-a]pyrimidine-5-carboxamide]: the IC50 lay in the range of 20 to 250 µM.

For the compound `COc1cccc2oc(-c3c(C)[nH]c4c(-c5ccccc5)c(C(C)=O)nn4c3=O)nc12` [Compound C1210, 2-acetyl-6-(4-methoxybenzo[d]oxazol-2-yl)-5-methyl-3-phenylpyrazolo[1,5-a]pyrimidin-7(4H)-one], the IC50 was less than 20 µM.

For the compound `COc1cccc2oc(-c3c(C(=O)NCCN(C)C)[nH]c4c(-c5ccccc5)c(C(F)(F)F)nn4c3=O)nc12` [Compound C1212, N-(2-(dimethylamino)ethyl)-6-(4-methoxybenzo[d]oxazol-2-yl)-7-oxo-3-phenyl-2-(trifluoromethyl)-4,7-dihydropyrazolo[1,5-a]pyrimidine-5-carboxamide], the IC50 is 20 to 250 µM.

Turning to `Cc1[nH]c2c(-c3ccccc3)c(C(F)(F)F)nn2c(=O)c1N1Cc2ccccc2C1=O` [Compound C1214, 5-methyl-6-(1-oxoisoindolin-2-yl)-3-phenyl-2-(trifluoromethyl)pyrazolo[1,5-a]pyrimidin-7(4H)-one], the IC50 lay in the range of 20 to 250 µM.

For the compound `COc1cccn2c(CO)c(-c3c(C)[nH]c4c(-c5ccccc5)c(C(F)(F)F)nn4c3=O)nc12` [Compound C1215, 6-(3-(hydroxymethyl)-8-methoxyimidazo[1,2-a]pyridin-2-yl)-5-methyl-3-phenyl-2-(trifluoromethyl)pyrazolo[1,5-a]pyrimidin-7(4H)-one], the IC50 fell in the range of 20 to 250 µM.

For the compound `Cc1[nH]c2c(-c3ccccc3)c(C(F)(F)F)nn2c(=O)c1N1Cc2ccc(N)cc2C1=O` [Compound C1217, 6-(6-amino-1-oxoisoindolin-2-yl)-5-methyl-3-phenyl-2-(trifluoromethyl)pyrazolo[1,5-a]pyrimidin-7(4H)-one], the IC50 lay in the range of 20 to 250 µM.

Regarding `COc1cccc2c1CN(c1c(C)[nH]c3c(-c4ccccc4)c(C(F)(F)F)nn3c1=O)C2=O` [Compound C1220, 6-(4-methoxy-1-oxoisoindolin-2-yl)-5-methyl-3-phenyl-2-(trifluoromethyl)pyrazolo[1,5-a]pyrimidin-7(4H)-one], the IC50 is 20 to 250 µM.

For the compound `COc1cccc2c1nc(-c1c(C)[nH]c3c(-c4ccccc4)c(C(F)(F)F)nn3c1=O)n2CC(=O)O` [Compound C1221, 2-(4-methoxy-2-(5-methyl-7-oxo-3-phenyl-2-(trifluoromethyl)-4,7-dihydropyrazolo[1,5-a]pyrimidin-6-yl)-1H-benzo[d]imidazol-1-yl)acetic acid], the IC50 was in the range of 20 to 250 µM.

As to `COc1cccc2oc(-c3c(COC4CCN(C)C4=O)[nH]c4c(-c5ccccc5)c(C(F)(F)F)nn4c3=O)nc12` (centres unmarked) [Compound C1225, 6-(4-methoxybenzo[d]oxazol-2-yl)-5-(((1-methyl-2-oxopyrrolidin-3-yl)oxy)methyl)-3-phenyl-2-(trifluoromethyl)pyrazolo[1,5-a]pyrimidin-7(4H)-one], the IC50 was less than 20 µM.

Regarding `COc1cccc2oc(-c3c(C)[nH]c4c(-c5ccccc5)c(C#CC5CC5)nn4c3=O)nc12` [Compound C1228, 2-(cyclopropylethynyl)-6-(4-methoxybenzo[d]oxazol-2-yl)-5-methyl-3-phenylpyrazolo[1,5-a]pyrimidin-7(4H)-one], the half-maximal inhibitory concentration (IC50) fell in the range of 20 to 250 µM.

The IC50 is the midpoint of a concentration-inhibition curve.

Values taken from patent publication US10738056B2 (Aduro BioTech, Inc., priority 2017, dated 2020).
